Consider 20 compounds from patent US20240217990A1 (Gilead Sciences, Inc., priority 2021, published 2024).

Each structure is given as a SMILES string.

One assay deals with T1, TLR7 (Homo sapiens, UniProt Q9NYK1).
T1 construct: Human peripheral blood mononuclear cells (PBMCs) consist of lymphocytes, monocytes and dendritic cells that express TLR7, TLR8 and TLR9; endogenous in cells; host or cells: cryopreserved human PBMCs from healthy donors
T1 sequence (Q9NYK1 27-1049): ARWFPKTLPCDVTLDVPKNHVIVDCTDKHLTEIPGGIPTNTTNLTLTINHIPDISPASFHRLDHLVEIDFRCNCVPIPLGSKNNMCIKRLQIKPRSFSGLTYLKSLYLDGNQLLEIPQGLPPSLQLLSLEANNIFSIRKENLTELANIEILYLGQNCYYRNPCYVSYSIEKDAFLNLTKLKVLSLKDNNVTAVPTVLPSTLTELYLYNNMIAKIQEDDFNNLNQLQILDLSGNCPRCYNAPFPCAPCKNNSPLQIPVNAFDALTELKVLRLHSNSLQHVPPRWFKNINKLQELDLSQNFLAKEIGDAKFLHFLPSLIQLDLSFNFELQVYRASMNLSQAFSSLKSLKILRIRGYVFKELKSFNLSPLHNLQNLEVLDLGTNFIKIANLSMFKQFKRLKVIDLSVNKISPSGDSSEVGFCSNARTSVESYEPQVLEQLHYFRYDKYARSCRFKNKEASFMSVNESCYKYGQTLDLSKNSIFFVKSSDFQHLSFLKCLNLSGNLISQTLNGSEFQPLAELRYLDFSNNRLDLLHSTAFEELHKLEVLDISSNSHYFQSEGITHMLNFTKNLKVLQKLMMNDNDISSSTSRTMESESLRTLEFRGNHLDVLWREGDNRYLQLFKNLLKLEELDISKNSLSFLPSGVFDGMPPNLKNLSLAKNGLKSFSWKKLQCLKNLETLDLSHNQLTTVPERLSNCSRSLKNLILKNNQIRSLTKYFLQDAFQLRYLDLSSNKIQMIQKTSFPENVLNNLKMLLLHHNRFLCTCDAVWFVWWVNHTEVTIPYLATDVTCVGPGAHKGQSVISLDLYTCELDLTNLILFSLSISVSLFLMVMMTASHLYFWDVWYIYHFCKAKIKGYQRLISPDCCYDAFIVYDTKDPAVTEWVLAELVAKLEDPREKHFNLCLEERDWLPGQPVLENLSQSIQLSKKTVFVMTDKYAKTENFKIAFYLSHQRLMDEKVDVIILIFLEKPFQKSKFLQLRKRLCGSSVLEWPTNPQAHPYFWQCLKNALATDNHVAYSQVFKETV
Kind of assay: TLR7 human PBMC cell-based assay (antagonist, GS-986 stimulated cytokine release). The note with it: human PBMCs; TLR7 agonist GS-986 400 nM, 6 hours; cytokines (IL-6 and IFNα) in supernatant; read-out: TLR-7 EC50. From the text:
(§1) Human peripheral blood mononuclear cells (PBMCs) consist of lymphocytes, monocytes and dendritic cells that express TLR7, TLR8 and TLR9. These cells respond to TLR7, TLR8 and TLR9 ligand stimulation and produce cytokines and chemokines in vitro and in vivo. Human PBMCs are therefore suitable to be used in a cell-based assay to assess the in vitro potency of a TLR 7, 8, and/or 9 antagonist. The result is expected to be more translatable to the pharmacodynamics response in vivo than cell line-based assays.
Cryopreserved human PBMCs from healthy donors were thawed and resuspended in RPMI-1640 media with L-glutamine (Corning) supplemented with 10% Fetal Bovine Serum (Hyclone) and 1× Penicillin-Streptomycin (Corning). After counting, the cell density was adjusted to 2 million cells/ml and incubated for 1 hour at 37° C., 5% CO2 for recovery. Following the recovery, the cells were plated by adding 50 μl per well (100,000 cells) to 384-well cell culture plates (Greiner) containing 250 nl of test antagonists in 100% DMSO per well, in a 10 points dose response in quadruplicates. PBMCs were incubated in the presence of test antagonists for one hour at 37° C., 5% CO2 before being stimulated with a TLR7 or TLR9agonist. GS-986 (Gilead Sciences) was used as the TLR7 agonist at a final concentration of 400 nM. ODN-2216 (InvivoGen) was used as the TLR9 agonist at a final concentration of 3 μM. PBMCs were incubated in the presence of the test antagonist and the TLR7 (or TLR9) agonist for an additional 6 hours at 37° C., 5% CO2. At the end of the incubation, the cell culture plates were centrifuged at 500 g for 5 min, and the cell culture supernatant was collected. The level of cytokines (IL-6 and IFNα) in the supernatant was measured by electrochemiluminescence immunoassays (Mesoscale Discovery) following manufacturer's recommended protocols. The level of cytokine measured was plotted against the test antagonist concentration and fitted to a sigmoidal function to determine the EC50, which are shown below in Table 11.

The target in the next assay is T2, TLR8 (Homo sapiens, UniProt Q9NR97).
T2 construct: Human peripheral blood mononuclear cells (PBMCs) consist of lymphocytes, monocytes and dendritic cells that express TLR7, TLR8 and TLR9; endogenous in cells; host or cells: cryopreserved human PBMCs from healthy donors
T2 sequence (Q9NR97 27-1041): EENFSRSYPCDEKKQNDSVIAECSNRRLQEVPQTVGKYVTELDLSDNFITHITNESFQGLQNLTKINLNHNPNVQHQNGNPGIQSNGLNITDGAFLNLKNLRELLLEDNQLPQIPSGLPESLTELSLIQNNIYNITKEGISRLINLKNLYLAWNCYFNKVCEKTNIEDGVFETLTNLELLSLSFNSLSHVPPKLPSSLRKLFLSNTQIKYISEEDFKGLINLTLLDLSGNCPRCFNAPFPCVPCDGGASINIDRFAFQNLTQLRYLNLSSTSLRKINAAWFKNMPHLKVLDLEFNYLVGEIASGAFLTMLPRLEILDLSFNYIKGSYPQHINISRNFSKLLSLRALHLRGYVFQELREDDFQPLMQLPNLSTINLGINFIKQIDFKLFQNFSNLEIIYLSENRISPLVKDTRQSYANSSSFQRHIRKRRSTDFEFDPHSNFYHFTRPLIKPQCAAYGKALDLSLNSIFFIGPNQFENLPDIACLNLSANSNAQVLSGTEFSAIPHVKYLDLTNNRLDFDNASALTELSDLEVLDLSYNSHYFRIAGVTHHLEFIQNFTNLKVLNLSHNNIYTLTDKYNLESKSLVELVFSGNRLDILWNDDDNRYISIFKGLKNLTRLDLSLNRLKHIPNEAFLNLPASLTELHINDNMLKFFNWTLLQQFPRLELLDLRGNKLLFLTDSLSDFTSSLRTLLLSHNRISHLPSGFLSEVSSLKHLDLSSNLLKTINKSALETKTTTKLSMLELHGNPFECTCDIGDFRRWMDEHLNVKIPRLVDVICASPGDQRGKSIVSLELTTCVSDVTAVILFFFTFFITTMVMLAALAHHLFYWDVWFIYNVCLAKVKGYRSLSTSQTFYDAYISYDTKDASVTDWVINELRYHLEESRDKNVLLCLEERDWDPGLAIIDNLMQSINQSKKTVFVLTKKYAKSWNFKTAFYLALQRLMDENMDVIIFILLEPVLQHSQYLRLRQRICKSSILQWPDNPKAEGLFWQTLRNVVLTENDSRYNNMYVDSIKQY
Put plainly: TLR8 human PBMC cell-based assay (antagonist, Compound A stimulated cytokine release). Particulars: human PBMCs; TLR8 agonist Compound A 800 nM, 6 hours; cytokines (TNFa and IL 12p40) in supernatant; read-out: TLR-8 EC50.
Source text: as §1
Cryopreserved human PBMCs from healthy donors were thawed and resuspended in RPMI-1640 media with L-glutamine (Corning) supplemented with 10% Fetal Bovine Serum (Hyclone) and 1X Penicillin-Streptomycin (Corning). After counting, the cell density was adjusted to 2 million cells/ml and incubated for 1 hour at 37° C., 5% CO2 for recovery. Following the recovery, the cells were plated by adding 50 μl per well (100,000 cells) to 384-well cell culture plates (Greiner) containing 250 nl of test antagonists in 100% DMSO per well, in a 10 points dose response in quadruplicates. PBMCs were incubated in the presence of antagonists for one hour at 37° C., 5% CO2 before being stimulated with TLR8 agonist. Compound A (Gilead Sciences, U.S. Pat. No. 10,285,990) was used as the TLR8 agonist at a final concentration of 800 nM. PBMCs were incubated in the presence of antagonist and the TLR8 agonist for an additional 6 hours at 37° C., 5% CO2. At the end of the incubation, the cell culture plates were centrifuged at 500 g for 5 min, and the cell culture supernatant was collected. The level of cytokines (TNFa and IL 12p40) in the supernatant was measured by electrochemiluminescence immunoassays (Mesoscale Discovery) following manufacturer's recommended protocols. The level of cytokine measured was plotted against the antagonist concentration and fitted to a sigmoidal function to determine the EC50, which are shown below in Table 11.

Usually EC50 stands for the concentration at which the effect is half-maximal. `Cc1cc(-c2[nH]c3cc(-c4cn(C5CCN(CCO)CC5)nn4)sc3c2C(C)C)cn2ncnc12` [Example 264, 2-(4-(4-(6-isopropyl-5-(8-methyl-[1,2,4]triazolo[1,5-a]pyridin-6-yl)-4H-thieno[3,2-b]pyrrol-2-yl)-1H-1,2,3-triazol-1-yl)piperidin-1-yl)ethan-1-ol]: the figures for the EC50 on TLR7 and at TLR8 were 1.8 nM and 1.6 nM, respectively.

`Cc1cc(-c2[nH]c3cc(C(=O)N4CCNC[C@H]4c4ccccc4)sc3c2C(C)C)cn2ncnc12` [Example 116]: the values for the EC50 on TLR7 and at TLR8 were 16.2 nM and 14 nM, respectively.

Consider `Cc1cc(-c2[nH]c3cc(-c4cnc5c(c4)CN(CCO)CC5)sc3c2C(C)C)cn2ncnc12` [Example 190], for which the EC50 at TLR7 turned out to be 2.4 nM; at TLR8, 0.5 nM.

Take `COc1cc(-c2[nH]c3cc(-c4cn(C5CCNCC5)nn4)sc3c2C(C)C)cn2ncnc12` [Example 232]: the EC50 turned out to be 0.7 nM on TLR7 and 1.3 nM on TLR8.

Consider `Cc1cc(-c2[nH]c3cc(C(=O)N(C)[C@H]4CCNC[C@H]4F)sc3c2C(C)C)cn2ncnc12` [Example 80], for which the EC50 came to 0.5 nM at TLR7 and 9.5 nM on TLR8.

Turning to `Cc1cc(-c2[nH]c3cc(C(=O)N4C[C@H](N)[C@@H]5CC[C@H]4C5)sc3c2C(C)C)cn2ncnc12` [Example 91], the EC50 amounted to 3 nM at TLR7 and 12.3 nM at TLR8.

Take `Cc1cc(-c2[nH]c3cc(C(=O)N4CC[C@H](N)C4)sc3c2C(C)C)cc(C)n1` [Example 7]: the EC50 at TLR7 is 110 nM; at TLR8, 35 nM.

Consider `CN[C@@H]1CCN(C(=O)c2cc3[nH]c(-c4cc(C)c5ncnn5c4)c(C(C)C)c3s2)C1` [Example 72], for which the EC50 at TLR7 stood at 1.9 nM; at TLR8 it was 1.1 nM.

Regarding `Cc1cc(-c2[nH]c3cc(C(=O)N(C)CC4CCNCC4)sc3c2C(C)C)cn2ncnc12` [Example 113], the figures for the EC50 on TLR7 and at TLR8 were 3.7 nM and 54.5 nM, respectively.

For `Cc1cc(-c2[nH]c3cc(C(=O)N(C)CCN(C)C4CC4)sc3c2C(C)C)cn2ncnc12` [Example 100], the figures for the EC50 at TLR7 and on TLR8 were 9.6 nM and 22.5 nM, respectively.

Consider `Cc1cc(-c2[nH]c3cc(C4CCC(N5CCC(F)C5)CC4)sc3c2C(C)C)cn2ncnc12` (stereo not shown) [Example 256, 2-(4-(3-fluoropyrrolidin-1-yl)cyclohexyl)-6-isopropyl-5-(8-methyl-[1,2,4]triazolo[1,5-a]pyridin-6-yl)-4H-thieno[3,2-b]pyrrole], for which the EC50 at TLR7 stood at 0.2 nM; at TLR8, 1.8 nM.

As for `Cc1c(C(=O)N2CCC[C@H](N)[C@@H]2C)sc2c(C(C)C)c(-c3cc(C)c4ncnn4c3)[nH]c12` [Example 242], the EC50 came to 15.4 nM at TLR7 and 219 nM on TLR8.

On to `Cc1cc(-c2[nH]c3cc(C4CCCNC4)sc3c2C(C)C)cn2ncnc12` (stereo not shown) [Example 155], for which the EC50 worked out at 4.8 nM at TLR7 and 5.7 nM at TLR8.

Turning to `Cc1cc(-c2[nH]c3cc(C4CC4C(=O)N4CCN(CCO)CC4)sc3c2C(C)C)cn2ncnc12` (stereo not shown) [Example 306], the EC50 amounted to 22.7 nM at TLR7 and 25 nM at TLR8.

Regarding `Cc1cc(-c2[nH]c3cc(C4CC5CCC(C4)N5CC(N)=O)sc3c2C(C)C)cn2ncnc12` (stereo not shown) [Example 299], the EC50 on TLR7 turned out to be 0.56 nM; at TLR8, 10.4 nM.

Regarding `Cc1cc(-c2[nH]c3cc(C4CCNCC4)sc3c2C(C)C)cn2ncnc12` [Example 154, 6-isopropyl-5-(8-methyl-[1,2,4]triazolo[1,5-a]pyridin-6-yl)-2-(piperidin-4-yl)-4H-thieno[3,2-b]pyrrole], the values for the EC50 at TLR7 and on TLR8 were 0.6 nM and 3.6 nM, respectively.

For `Cc1c(-c2[nH]c3cc(-c4ccc(N5CCNCC5)cc4)sc3c2C(C)C)cn2ncnc2c1C` [Example 231], the EC50 came to 1.7 nM at TLR7 and 3.1 nM on TLR8.

As to `Cc1cc(-c2[nH]c3cc(C(=O)N(C)C4CCN(C(=O)CN(C)C)CC4)sc3c2C(C)C)cn2ncnc12` [Example 180], the values for the EC50 at TLR7 and at TLR8 were 0.7 nM and 11.5 nM, respectively.

As for `Cc1cc(-c2[nH]c3cc(C(=O)N4CCN[C@H](C)C4)sc3c2C(C)C)cn2ncnc12` [Example 128], the EC50 turned out to be 1.1 nM on TLR7 and 0.8 nM on TLR8.

With `Cc1cc(-c2[nH]c3cc(C(=O)N4CCC5CCNCC54)sc3c2C(C)C)cn2ncnc12` (stereo not shown) [Example 89], the EC50 at TLR7 came out at 2.5 nM; on TLR8, 26.2 nM.
